Drawing on ChEMBL document CHEMBL4043168, “The design and SAR of a novel series of 2-aminopyridine based LRRK2 inhibitors” (Bioorg Med Chem Lett, 2017), this text covers inhibition for one compound.

SMILES strings stand for the structures.

Assay [1] has as its target Serine/threonine-protein kinase SIK2 (Homo sapiens) (UniProt Q9H0K1). Description: Inhibition of QIK conserved Lys1 (EVAIKIIDK) in human PBMC at 0.1 uM.
Assay [2] has as its target T1, Inhibitor of nuclear factor kappa-B kinase subunit epsilon (Homo sapiens) (UniProt Q14164).
T1 sequence (whole entry): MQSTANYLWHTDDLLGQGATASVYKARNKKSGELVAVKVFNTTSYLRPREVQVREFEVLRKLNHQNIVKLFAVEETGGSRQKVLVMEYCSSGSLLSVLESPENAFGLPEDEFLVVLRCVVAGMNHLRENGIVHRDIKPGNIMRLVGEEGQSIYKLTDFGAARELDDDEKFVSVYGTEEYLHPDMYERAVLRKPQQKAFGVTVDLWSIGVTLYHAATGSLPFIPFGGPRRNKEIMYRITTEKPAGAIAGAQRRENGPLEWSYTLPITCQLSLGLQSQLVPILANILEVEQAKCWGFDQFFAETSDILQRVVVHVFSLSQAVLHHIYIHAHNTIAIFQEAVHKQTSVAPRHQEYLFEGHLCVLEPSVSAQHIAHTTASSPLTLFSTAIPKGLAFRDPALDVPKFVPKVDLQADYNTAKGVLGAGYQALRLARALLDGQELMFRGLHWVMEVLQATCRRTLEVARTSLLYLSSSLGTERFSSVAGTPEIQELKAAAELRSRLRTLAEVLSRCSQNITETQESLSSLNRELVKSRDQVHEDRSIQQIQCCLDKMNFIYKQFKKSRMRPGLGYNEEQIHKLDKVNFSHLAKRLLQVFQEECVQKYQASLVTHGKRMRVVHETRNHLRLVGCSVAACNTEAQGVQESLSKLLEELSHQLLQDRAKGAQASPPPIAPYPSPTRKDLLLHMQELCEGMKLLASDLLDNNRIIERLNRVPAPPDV
Put plainly: Inhibition of IKKe conserved Lys1 (SGELVAVKVFNTTSYLRPR) in human PBMC at 0.1 uM.

The target in assay [3] is Calcium/calmodulin-dependent protein kinase type II subunit gamma (Homo sapiens) (UniProt Q13555). Put plainly: Inhibition of CaMK2g labeling at conserved Lys1 (TSTQEYAAKIINTK) in human PBMC at 0.1 uM.
Assay [4] addresses 1-phosphatidylinositol 3-phosphate 5-kinase (Homo sapiens) (UniProt Q9Y2I7). Description: Inhibition of PIP5K3 ATP binding site (GGKSGAAFYATEDDRFILK) in human PBMC at 1 uM.
For assay [5], the target named is Cyclin-dependent kinase 2 (Homo sapiens) (UniProt P24941). Description: Inhibition of CDK2 labeling at conserved Lys1 (LTGEVVALKK) in human PBMC at 0.1 uM.
Assay [6] addresses Glycogen synthase kinase-3 beta (Homo sapiens) (UniProt P49841). Description: Inhibition of GSK3B conserved Lys2 (DIKPQNLLLDPDTAVLK) in human PBMC at 0.1 uM.
The target of assay [7] is T2, Mitogen-activated protein kinase kinase kinase 6 (Homo sapiens) (UniProt O95382).
T2 sequence (whole entry): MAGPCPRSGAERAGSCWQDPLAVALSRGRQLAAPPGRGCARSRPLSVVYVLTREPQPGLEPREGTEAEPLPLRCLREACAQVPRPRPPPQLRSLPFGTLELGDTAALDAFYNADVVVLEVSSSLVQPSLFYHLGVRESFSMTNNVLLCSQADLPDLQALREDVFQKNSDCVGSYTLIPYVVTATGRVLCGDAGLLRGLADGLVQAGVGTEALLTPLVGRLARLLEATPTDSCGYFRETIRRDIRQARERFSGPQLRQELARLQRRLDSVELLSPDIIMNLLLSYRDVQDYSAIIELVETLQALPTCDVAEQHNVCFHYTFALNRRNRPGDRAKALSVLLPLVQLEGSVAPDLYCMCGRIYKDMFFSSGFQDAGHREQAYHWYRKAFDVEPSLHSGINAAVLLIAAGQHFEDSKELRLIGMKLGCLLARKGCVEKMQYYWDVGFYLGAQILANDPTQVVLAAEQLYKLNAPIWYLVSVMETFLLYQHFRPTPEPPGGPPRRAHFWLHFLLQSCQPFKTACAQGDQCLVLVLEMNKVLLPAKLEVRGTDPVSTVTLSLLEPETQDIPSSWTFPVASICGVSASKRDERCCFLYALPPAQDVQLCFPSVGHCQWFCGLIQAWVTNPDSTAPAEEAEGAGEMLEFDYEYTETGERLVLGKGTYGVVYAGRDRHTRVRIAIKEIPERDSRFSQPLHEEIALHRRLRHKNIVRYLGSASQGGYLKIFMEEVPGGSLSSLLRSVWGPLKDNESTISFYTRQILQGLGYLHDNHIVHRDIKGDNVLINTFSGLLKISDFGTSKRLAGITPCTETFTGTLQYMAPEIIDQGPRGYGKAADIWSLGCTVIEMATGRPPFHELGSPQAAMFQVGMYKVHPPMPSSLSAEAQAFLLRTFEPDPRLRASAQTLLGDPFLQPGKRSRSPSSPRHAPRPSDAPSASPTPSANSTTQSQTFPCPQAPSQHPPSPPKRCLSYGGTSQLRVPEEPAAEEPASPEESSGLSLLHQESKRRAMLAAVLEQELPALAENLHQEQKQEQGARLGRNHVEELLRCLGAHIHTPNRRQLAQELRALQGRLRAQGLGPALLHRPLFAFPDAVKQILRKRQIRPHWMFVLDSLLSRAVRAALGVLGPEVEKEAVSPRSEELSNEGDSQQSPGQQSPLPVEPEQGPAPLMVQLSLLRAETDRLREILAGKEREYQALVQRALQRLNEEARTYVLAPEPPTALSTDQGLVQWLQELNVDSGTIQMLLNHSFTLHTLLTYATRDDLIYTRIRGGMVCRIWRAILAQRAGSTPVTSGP
Put plainly: Inhibition of MAP3K6 conserved Lys2 (DIKGDNVLINTFSGLLK) in human PBMC at 0.1 uM.

Assay [8] concerns the target Serine/threonine-protein kinase Nek4 (Homo sapiens) (UniProt P51957). Description: Inhibition of NEK4 conserved Lys2 (DLKTQNVFLTR) in human PBMC at 0.1 uM.
Assay [9] deals with Kinase suppressor of Ras 2 (Homo sapiens) (UniProt Q6VAB6). Put plainly: Inhibition of KSR2 activation Loop (SKNVFYDNGK) in human PBMC at 1 uM.
Assay [10] deals with Calcium/calmodulin-dependent protein kinase type II subunit alpha (Homo sapiens) (UniProt Q9UQM7). Put plainly: Inhibition of CaMK2a labeling at conserved Lys2 (DLKPENLLLASK) in human PBMC at 1 uM.
The target of assay [11] is Mitogen-activated protein kinase 10 (Homo sapiens) (UniProt P53779). Put plainly: Inhibition of JNK3 conserved Lys2 (DLKPSNIVVK) in human PBMC at 0.1 uM.
Assay [12] concerns the target Cyclin-dependent kinase 2 (Homo sapiens) (UniProt P24941). Put plainly: Inhibition of CDK2 labeling at conserved Lys2 (DLKPQNLLINTEGAIK) in human PBMC at 1 uM.

Glycogen synthase kinase-3 beta (Homo sapiens), sequence (P49841 whole entry, looked up): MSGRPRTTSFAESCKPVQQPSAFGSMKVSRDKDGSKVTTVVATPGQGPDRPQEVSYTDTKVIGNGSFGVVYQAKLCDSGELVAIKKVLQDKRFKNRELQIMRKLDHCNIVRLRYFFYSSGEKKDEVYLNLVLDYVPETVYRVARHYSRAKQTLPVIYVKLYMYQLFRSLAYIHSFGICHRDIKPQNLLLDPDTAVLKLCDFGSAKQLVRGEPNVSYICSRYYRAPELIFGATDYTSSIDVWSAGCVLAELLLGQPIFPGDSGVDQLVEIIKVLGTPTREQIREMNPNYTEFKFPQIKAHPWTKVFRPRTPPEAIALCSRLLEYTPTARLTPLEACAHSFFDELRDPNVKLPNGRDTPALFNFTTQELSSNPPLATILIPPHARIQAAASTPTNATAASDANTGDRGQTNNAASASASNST
Calcium/calmodulin-dependent protein kinase type II subunit gamma (Homo sapiens), sequence (Q13555 whole entry): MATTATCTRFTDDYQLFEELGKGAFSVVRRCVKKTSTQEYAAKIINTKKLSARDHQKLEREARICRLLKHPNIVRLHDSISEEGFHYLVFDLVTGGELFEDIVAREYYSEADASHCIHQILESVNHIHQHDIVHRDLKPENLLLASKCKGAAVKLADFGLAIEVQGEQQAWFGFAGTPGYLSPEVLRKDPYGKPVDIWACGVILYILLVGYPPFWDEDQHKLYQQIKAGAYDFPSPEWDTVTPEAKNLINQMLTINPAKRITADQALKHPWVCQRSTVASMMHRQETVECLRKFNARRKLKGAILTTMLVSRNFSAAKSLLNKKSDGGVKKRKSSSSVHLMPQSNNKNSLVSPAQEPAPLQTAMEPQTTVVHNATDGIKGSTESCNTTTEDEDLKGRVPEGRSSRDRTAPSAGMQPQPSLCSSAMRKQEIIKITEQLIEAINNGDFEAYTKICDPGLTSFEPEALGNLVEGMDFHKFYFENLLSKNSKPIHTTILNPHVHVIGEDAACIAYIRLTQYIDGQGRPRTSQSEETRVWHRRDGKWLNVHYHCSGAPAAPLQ
Kinase suppressor of Ras 2 (Homo sapiens), sequence (Q6VAB6 whole entry): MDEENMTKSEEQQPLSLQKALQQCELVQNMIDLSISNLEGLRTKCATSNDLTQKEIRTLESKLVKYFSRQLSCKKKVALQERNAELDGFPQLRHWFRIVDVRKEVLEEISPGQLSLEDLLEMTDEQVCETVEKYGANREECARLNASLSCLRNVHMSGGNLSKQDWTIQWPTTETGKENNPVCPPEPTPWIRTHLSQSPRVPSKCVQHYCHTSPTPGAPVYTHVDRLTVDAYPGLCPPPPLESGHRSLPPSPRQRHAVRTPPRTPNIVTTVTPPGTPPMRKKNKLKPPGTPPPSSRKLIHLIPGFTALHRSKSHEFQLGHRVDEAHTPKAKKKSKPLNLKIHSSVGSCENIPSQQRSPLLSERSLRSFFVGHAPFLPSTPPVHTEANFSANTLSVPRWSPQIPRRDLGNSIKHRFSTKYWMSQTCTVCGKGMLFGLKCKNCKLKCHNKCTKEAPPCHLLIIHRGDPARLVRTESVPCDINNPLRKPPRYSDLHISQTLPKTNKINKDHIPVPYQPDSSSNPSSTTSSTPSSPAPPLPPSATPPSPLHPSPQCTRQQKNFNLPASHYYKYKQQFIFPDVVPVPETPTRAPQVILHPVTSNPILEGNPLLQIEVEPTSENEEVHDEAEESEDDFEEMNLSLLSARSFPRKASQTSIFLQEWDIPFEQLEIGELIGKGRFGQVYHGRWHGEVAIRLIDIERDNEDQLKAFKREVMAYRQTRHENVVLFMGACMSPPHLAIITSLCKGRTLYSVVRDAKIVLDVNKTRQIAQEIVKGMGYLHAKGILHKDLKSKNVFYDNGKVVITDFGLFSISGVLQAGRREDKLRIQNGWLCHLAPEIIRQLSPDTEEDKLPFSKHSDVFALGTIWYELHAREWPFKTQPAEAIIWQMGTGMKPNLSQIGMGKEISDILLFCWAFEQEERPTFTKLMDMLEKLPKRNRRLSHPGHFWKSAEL
Serine/threonine-protein kinase Nek4 (Homo sapiens), sequence (P51957 whole entry, looked up): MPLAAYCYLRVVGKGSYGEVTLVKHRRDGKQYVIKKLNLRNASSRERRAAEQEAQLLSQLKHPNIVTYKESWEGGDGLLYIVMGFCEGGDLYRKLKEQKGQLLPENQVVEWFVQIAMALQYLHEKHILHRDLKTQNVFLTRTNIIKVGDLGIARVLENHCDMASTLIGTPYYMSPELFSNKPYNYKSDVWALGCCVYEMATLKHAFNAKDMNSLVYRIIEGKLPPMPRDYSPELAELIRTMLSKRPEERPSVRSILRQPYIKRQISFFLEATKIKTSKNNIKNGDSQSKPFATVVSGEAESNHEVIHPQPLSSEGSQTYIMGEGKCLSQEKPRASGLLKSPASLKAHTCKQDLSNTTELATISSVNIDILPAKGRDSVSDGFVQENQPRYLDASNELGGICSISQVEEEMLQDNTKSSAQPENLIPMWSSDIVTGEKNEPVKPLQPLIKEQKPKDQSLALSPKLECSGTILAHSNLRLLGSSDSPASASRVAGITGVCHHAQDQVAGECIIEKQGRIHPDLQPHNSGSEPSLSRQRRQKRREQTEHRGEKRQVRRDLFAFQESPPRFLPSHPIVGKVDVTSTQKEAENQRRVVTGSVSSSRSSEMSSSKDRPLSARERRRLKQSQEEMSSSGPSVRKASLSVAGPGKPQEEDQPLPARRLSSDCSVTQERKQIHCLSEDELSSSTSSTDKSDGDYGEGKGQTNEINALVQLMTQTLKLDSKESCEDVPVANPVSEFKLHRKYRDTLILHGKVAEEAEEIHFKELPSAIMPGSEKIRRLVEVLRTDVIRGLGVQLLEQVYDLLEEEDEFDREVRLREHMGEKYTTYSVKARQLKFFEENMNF
Calcium/calmodulin-dependent protein kinase type II subunit alpha (Homo sapiens), sequence (Q9UQM7 whole entry): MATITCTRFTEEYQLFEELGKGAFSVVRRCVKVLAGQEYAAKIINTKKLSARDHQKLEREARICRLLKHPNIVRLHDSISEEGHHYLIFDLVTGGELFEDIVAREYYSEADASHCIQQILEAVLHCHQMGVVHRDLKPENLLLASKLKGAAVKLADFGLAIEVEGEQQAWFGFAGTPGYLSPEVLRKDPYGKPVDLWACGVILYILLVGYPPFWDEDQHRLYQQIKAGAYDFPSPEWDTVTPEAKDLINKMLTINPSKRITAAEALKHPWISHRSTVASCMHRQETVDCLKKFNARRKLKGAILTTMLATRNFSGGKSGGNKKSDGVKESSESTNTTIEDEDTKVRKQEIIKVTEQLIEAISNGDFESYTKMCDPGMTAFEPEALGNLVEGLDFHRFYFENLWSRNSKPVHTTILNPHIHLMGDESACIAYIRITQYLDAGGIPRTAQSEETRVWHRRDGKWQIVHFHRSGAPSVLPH
Mitogen-activated protein kinase 10 (Homo sapiens), sequence (P53779 whole entry): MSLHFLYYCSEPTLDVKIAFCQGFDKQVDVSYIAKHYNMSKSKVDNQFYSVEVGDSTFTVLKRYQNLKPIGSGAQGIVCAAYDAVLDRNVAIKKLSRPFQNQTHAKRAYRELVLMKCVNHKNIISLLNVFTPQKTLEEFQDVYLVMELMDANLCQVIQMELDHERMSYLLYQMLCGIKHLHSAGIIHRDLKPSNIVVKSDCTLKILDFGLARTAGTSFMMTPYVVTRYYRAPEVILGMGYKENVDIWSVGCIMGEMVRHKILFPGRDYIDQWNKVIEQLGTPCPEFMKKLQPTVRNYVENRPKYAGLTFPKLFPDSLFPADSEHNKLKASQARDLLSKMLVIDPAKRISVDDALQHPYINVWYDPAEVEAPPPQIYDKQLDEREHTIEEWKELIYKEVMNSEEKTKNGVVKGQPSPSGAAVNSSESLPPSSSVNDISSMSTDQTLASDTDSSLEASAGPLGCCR
Serine/threonine-protein kinase SIK2 (Homo sapiens), sequence (Q9H0K1 whole entry, looked up): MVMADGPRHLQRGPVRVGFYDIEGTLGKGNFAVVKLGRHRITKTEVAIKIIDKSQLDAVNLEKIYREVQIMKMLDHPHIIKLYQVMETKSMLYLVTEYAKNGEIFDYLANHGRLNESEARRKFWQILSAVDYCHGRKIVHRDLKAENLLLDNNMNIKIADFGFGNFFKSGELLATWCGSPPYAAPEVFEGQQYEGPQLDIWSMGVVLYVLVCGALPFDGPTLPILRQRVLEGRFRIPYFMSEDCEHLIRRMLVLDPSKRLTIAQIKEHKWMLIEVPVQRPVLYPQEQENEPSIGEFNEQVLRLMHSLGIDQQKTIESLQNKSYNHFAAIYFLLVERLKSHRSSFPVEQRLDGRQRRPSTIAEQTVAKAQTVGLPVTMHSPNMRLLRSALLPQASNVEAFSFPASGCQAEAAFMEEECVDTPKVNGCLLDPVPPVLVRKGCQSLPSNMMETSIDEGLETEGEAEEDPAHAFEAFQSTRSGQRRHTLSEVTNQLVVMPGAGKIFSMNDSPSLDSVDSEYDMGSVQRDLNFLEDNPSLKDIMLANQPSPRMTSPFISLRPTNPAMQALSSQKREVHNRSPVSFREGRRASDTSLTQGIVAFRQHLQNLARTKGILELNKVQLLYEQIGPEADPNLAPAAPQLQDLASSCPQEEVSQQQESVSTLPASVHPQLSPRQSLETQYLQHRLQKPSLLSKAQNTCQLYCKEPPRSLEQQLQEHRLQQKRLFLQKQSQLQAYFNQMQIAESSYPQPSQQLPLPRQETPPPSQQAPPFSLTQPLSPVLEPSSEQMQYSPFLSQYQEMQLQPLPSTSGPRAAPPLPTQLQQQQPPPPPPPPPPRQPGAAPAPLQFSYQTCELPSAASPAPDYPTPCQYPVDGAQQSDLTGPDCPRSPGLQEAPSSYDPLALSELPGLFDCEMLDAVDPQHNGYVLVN

Turning to `CC(C)n1cc(-c2cc(-c3ccc(CN4CCOCC4)cc3)cnc2N)nn1`, the inhibition was -6.7% in [1]; 6.2% in assay [2]; -4.5% in assay [3]; -9.2% in assay [4]; 23.4% in [5]; -10% in assay [6]. Moreover, the inhibition in assay [7] is -0.5%; in [8], 5.6%; in [9], 20.1%; in [10], -0.4%; in assay [11], 25.1%; in assay [12], 16.8%.
